PMC10385579, “Design, Synthesis, and Biological Evaluation of Indole-2-carboxamides as Potential Multi-Target Antiproliferative Agents” (Pharmaceuticals, 2023)

Columns and labels:
[1] = system: human epithelial (A-549) cancer cell line; assay: Antiproliferative assay, A-549; type: cell-based; conditions: A549, read-out: Antiproliferative Activity IC50 ± SEM, A-549
Protocol: (§1) 4.2.1.2. Assay for antiproliferative effect
(§2) To explore the antiproliferative potential of compounds propidium iodide fluorescence assay was performed using different cell lines such as Panc-1 (pancreas cancer cell line), MCF-7 (breast cancer cell line), HT-29 (colon cancer cell line) and A-549 (epithelial cancer cell line), respectively.
(§3) To calculate the total nuclear DNA, a fluorescent dye (propidium iodide, PI) is used which can attach to the DNA, thus offering a quick and precise technique. PI cannot pass through the cell membrane and its signal intensity can be considered as directly proportional to quantity of cellular
(§4) DNA. Cells whose cell membranes are damaged or have changed permeability are counted as dead ones. The assay was performed by seeding the cells of different cell lines at a density of 3000-7500 cells/well (in200μl medium) in culture plates followed by incubation for 24h at 37 °C in humidified 5%CO2/95% air atmospheric conditions. The medium was removed; the compounds were added to the plates at 10 μM concentrations (in 0.1% DMSO) in triplicates, followed by incubation for 48h. DMSO (0.1%) was used as control. After incubation, medium was removed followed by the addition of PI (25 μl, 50μg/mL in water/medium) to each well of the plates. At - 80 °C, the plates were allowed to freeze for 24 h, followed by thawing at 25 °C. A fluorometer (Polar-Star BMG Tech) was used to record the readings at excitation and emission wavelengths of 530 and 620 nm for each well. The percentage cytotoxicity of compounds was calculated using […]
(§5) Where ATC= Absorbance of treated cells and AC= Absorbance of control. Erlotinib was used as positive control in the assay.

caspase-3 = assay: Caspase 3 assay in A-549 cells; type: cell-based, human; conditions: for Caspase-3 Conc: untreated control 66 pg/mL
Protocol: Caspases play a crucial function in the induction and completion of apoptosis. Caspase-3 is an essential caspase that cleaves different proteins in cells, resulting in apoptosis. […]
4.2.5. Caspase-3 activation assay
Allow all reagents to reach room temperature before use. Gently mix all liquid reagents prior to use. Determine the number of 8-well strips needed for the assay. Insert these in the frame(s) for current use. Add 100 μl of the Standard Diluent Buffer to the zero standard wells. Well(s) reserved for chromogen blank should be left empty. Add 100 μl of standards and controls or diluted samples to the appropriate microtiter wells. The sample dilution chosen should be optimized for each experimental system. Tap gently on side of plate to mix. Cover wells with plate cover and incubate for 2 hours at room temperature. Thoroughly aspirate or decant solution from wells and discard the liquid, Wash wells 4 times. Pipette 100 μl of Caspase-3 (Active) Detection Antibody solution into each well except the chromogen blank(s). Tap gently on the side of the plate to mix. Cover plate with plate cover and incubate for 1 hour at room temperature. Thoroughly aspirate or decant solution from wells and discard the liquid, Wash wells 4 times. Add 100 μl Anti-Rabbit IgG HRP Working Solution to each well except the chromogen blank(s). Prepare the working dilution as described in Preparing IgG HRP. Cover wells with the plate cover and incubate for 30 minutes at room temperature. Thoroughly aspirate or decant solution from wells and discard the liquid. Wash wells 4 times. Add 100 μl of Stabilized Chromoge n to each well. The liquid in the wells will begin to turn blue. Incubate for 30 minutes at room temperature and in the dark. The incubation time for chromogen substrate is often determined by the microtiter plate reader used. Many plate readers have the capacity to record a maximum optical density (O.D.) of 2.0. The O.D. values should be monitored, and the substrate reaction stopped before the O.D. of the positive wells exceeds the limits of the instrument. The O.D. values at 450 nm can only be read after the Stop Solution has been added to each well. If using a reader that records only to 2.0 O.D., stopping the assay after […]
Add 100 μl of Stop Solution to each well. Tap side of plate gently to mix. The solution in the wells should change from blue to yellow. Read the absorbance of each well at 450 nm having blanked the plate reader against a chromogen blank composed of 100 μl each of Stabilized Chromogen and Stop Solution. Read the plate within 2 hours after adding the Stop Solution. Use a curve fitting software to generate the standard curve. A four-parameter algorithm provides the best standard curve fit. Read the concentrations for unknown samples and controls from the standard curve. Multiply value(s) obtained for sample(s) by the appropriate dilution factor to correct for the dilution in step 3. Samples producing signals greater than that of the highest standard should be diluted in Standard Diluent Buffer and reanalyzed.

[2] = system: pancreatic cancer (Panc-1) cell line; assay: Antiproliferative assay, Panc-1; type: cell-based; conditions: Homo sapiens, read-out: Antiproliferative Activity IC50 ± SEM, Panc-1
Protocol: as §1, §2, §3, §4, §5

[3] = system: breast cancer (MCF-7) cell line; assay: Antiproliferative assay, MCF-7; type: cell-based; conditions: Homo sapiens, MCF7; read-out: Antiproliferative Activity IC50 ± SEM, MCF-7
Protocol: as §1, §2, §3, §4, §5

EGFR = EGFR (Homo sapiens, UniProt P00533); assay: EGFR inhibitory assay
EGFR, sequence (P00533 669-1210): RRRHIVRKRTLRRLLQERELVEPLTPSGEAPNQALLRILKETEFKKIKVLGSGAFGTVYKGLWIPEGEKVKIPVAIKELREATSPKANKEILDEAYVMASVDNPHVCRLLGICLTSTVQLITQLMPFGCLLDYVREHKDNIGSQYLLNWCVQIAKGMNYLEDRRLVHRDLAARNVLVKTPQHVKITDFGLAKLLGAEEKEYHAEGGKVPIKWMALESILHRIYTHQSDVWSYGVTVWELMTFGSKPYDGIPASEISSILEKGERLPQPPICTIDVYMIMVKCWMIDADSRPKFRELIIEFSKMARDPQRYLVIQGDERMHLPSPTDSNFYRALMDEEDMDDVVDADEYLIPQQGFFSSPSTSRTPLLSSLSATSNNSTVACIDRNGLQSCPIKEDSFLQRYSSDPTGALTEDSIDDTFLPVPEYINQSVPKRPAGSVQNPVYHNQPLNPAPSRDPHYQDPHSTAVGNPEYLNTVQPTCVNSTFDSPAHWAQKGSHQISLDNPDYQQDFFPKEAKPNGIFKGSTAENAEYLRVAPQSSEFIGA

caspase-8 = assay: Caspase-8 level assay in A-549 cells; type: cell-based, human; conditions: for Caspase-8 Conc: control 0.10; for Caspase-8 Fold Change: vs control
Protocol: See Supplementary Materials.
4.2.6. Caspase-8 activation assay […]
caspase8, and lysed with Cell Extraction Buffer. This lysate was diluted in Standard Diluent Buffer over the range of the assay and measured for human active caspase-8 content. (Cells are Plated in a density of 1.2 – 1.8 × 10,000 cells/well in a vo lume of 100µl complete growth medium + 100 ul of the tested compound per well in a 96-well plate for 24 hours before the enzyme assay for Tubulin.). The absorbance of each microwell was read on a spectro-photometer at 450 nm. A standard curve is prepared from 7human Caspase-8 standard dilutions and human Caspase-8 concentration determined. […]

[4] = system: colon cancer (HT-29) cell line; assay: Antiproliferative assay, HT-29; type: cell-based; conditions: Homo sapiens, read-out: Antiproliferative Activity IC50 ± SEM, HT-29
Protocol: as §1, §2, §3, §4, §5

VEGFR-2 = VEGFR-2 (Homo sapiens, UniProt P35968); assay: VEGFR-2 inhibitory assay
VEGFR-2, sequence (P35968 20-1356): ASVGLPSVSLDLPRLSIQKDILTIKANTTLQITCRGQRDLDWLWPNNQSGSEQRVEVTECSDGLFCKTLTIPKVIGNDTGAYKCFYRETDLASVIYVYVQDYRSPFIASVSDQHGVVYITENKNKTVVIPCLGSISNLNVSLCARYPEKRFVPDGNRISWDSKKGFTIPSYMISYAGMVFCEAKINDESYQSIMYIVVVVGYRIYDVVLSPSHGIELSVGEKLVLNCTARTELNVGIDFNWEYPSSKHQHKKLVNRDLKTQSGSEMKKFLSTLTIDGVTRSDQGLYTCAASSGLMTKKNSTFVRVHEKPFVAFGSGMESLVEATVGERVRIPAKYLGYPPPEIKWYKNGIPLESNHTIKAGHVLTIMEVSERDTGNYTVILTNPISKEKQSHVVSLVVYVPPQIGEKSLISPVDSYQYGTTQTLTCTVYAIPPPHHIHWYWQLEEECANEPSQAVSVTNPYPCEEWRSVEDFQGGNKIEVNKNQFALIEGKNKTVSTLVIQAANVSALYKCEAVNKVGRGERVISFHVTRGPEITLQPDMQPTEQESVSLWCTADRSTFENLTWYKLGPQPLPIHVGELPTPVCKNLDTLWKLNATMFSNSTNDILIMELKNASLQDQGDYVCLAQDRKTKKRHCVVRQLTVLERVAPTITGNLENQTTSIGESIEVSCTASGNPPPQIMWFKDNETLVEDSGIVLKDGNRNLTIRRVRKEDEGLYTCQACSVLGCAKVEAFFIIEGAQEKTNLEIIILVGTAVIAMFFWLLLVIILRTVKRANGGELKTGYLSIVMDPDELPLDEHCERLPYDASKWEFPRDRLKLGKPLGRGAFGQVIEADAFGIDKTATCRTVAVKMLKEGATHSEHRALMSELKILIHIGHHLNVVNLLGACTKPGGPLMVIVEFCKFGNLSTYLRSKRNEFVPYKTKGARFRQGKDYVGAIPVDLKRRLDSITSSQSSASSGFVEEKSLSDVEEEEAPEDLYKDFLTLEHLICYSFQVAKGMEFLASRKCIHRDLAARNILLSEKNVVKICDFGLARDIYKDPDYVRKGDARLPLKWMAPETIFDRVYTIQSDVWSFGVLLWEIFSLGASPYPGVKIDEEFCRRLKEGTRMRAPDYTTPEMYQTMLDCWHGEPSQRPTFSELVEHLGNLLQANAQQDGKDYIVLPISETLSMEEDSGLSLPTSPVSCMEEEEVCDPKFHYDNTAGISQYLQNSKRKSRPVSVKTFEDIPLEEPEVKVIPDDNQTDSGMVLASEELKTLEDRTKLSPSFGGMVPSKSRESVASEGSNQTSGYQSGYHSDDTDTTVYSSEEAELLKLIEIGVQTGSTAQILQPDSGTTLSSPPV
Protocol: Prepare all the solutions using autoclaved, deionized water and analytical grade reagents.
and store all the reagents at room temperature (unless indicated otherwise).
solution, add 5 mL ultra-pure water; 1×Kinase Assay Buffer: add 25 mL HEPES solution (1 M),
water, adjust pH to 7.5 and constant volume to 500 mL using ultrapure water; 4×Stop solution (40
mM): Mix 0.8 mL of the foregoing EDTA solution, 1 mL 10×Detection Buffer and 8.2 mL ultra-
pure water; 1×Detection Buffer: Mix 1 mL 10×Detection Buffer with 9 mL water; 4×VEGFR
μM) was added to 624 μL 1×Kinase Assay Buffer and mixed; 4×ULight™-labeled JAK1
concentration 5 μM) was added to 576 μL 1×Kinase Assay Buffer and mixed; 4×ATP Solution
2×substrate/ATP Mix: 560 μL foregoing 4×ULight™-labeled JAK1 and 560 μL 4×ATP solution
and mixed (prepared before use). The assays used an ULight-labeled peptide substrate and a
Europium-W1024-labeled antiphosphotyrosine antibody. The VEGFR-2 was purchased from
Carna Biosciences, Inc. (New York, USA). The 384-well plates were obtained from PerkinElmer.
5 μL 2×VEGFR-2 kinase solution (0.5 nM)
was added to 384-well plates homogeneous mixing and pre-reaction at room temperature for 30 min. Next, 2.5 μL 4×Ultra ULightTM-JAK-1(Tyr1023) Peptide (200 nM)/ATP (40 μM) was added to the corresponding wells of a 384-well plate. Negative control: 2.5 μL/well 4×substrate/ATP mixture and 7.5 μL 1×kinase assay buffer in 384-well plate well. Positive control:
μL/well 2×VEGFR-2 kinase solution was added to the 384-well plate, The final concentration of DMSO in the mixing system was 4%. After incubation at room temperature and dark for 60 min, 5 μL 4×stop solution was added to corresponding wells to react for 5 min and then 5 μL 4×detection mix was added to the corresponding wells of a 384-well plate. The mixture was centrifugally mixed and stayed for 60 min at room temperature for color development. The plate was read using a Envision plate reader. The inhibition rate (%) = (positive well reading-compound well reading)/(positive well reading-negative well reading)×100. The corresponding IC50 values were calculated using GraphPad Prism 5.0.

With `O=C(NCC(c1ccccc1)c1c(-c2ccccc2)[nH]c2ccccc12)c1cc2cc(Cl)ccc2[nH]1` (stereo not shown) [Compound Va, 5-Chloro-N-(2-phenyl-2-(2-phenyl-1H-indol-3-yl)ethyl)-1H-indole-2-carboxamide] the IC50 [1] was 25 ± 2 nM, the “Caspase-3 Conc” value (caspase-3) was 726 ± 6 pg/mL and the IC50 [2] was 26 ± 2 nM. For the same molecule, the IC50 [3] was 28 ± 2 nM, the IC50 (EGFR) was 71 ± 6 nM and the “Caspase-8 Conc” value (caspase-8) was 3.50 ng/mL. For the same molecule, the “Caspase-8 Fold Change” value (caspase-8) was 35, the IC50 [4] was 26 ± 2 nM and the IC50 (VEGFR-2) was 2.15 ± 0.2 nM.
With `CO/C=C/c1c(C(=O)NCC(c2ccccc2)c2c(-c3ccccc3)[nH]c3ccccc23)[nH]c2ccc(Cl)cc12` (stereo not shown) [Compound Vg, (E)-5-Chloro-3-(2-methoxyvinyl)-N-(2-phenyl-2-(2-phenyl-1H-indol-3-yl)ethyl)-1H-indole-2-carboxamide] the IC50 [1] was 30 ± 2 nM, the “Caspase-3 Conc” value (caspase-3) was 528 ± 5 pg/mL and the “Caspase-3 Fold Change” value (caspase-3; vs untreated control) was about 8. It also gave an IC50 [2] of 30 ± 2 nM, an IC50 [3] of 33 ± 3 nM and an IC50 (EGFR) of 79 ± 6 nM. For the same molecule, the “Caspase-8 Conc” value (caspase-8) was 2.20 ng/mL, the “Caspase-8 Fold Change” value (caspase-8) was 22 and the IC50 [4] was 30 ± 2 nM. For the same molecule, the IC50 (VEGFR-2) was 1.6 ± 0.1 nM.
